Measured values taken from patent US10745382B2 (BRISTOL-MYERS SQUIBB COMPANY, priority 2015, dated 2020).
Like-named read-outs stand apart in the source and are kept apart here.

Biological target: T1, PD-1/PD-L1 (Homo sapiens, UniProt Q9NZQ7)
T1 construct: made in house; host or cells: HEK293T
Experiment: PD-1/PD-L1 Homogenous Time-Resolved Fluorescence (HTRF) binding assay
Details: PD-L1-His 10 nM, PD-1-Ig 20 nM, read-out: Range or IC50
Summary of the method: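 Detection by europium cryptate anti-Ig plus APC anti-His (1 nM and 20 nM final) with HTRF signal. Buffer was dPBS, 0.1% BSA, 0.05% Tween-20.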

T1 sequence (Q9NZQ7 with tags, fused parts or gaps): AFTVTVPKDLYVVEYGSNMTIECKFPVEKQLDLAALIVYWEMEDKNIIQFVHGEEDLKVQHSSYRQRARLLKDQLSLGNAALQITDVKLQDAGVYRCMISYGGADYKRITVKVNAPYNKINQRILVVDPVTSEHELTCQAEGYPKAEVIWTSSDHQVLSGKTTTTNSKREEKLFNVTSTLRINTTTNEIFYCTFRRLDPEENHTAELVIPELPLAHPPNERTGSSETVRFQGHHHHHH

Compound	IC50 (value given as range class) [nM]	IC50 (numeric IC50) [nM]
Cc1c(COc2cc(OCc3cncc(C#N)c3)c(CN[C@](C)(CO)C(=O)O)cc2Cl)cccc1-c1cccc(OCCCN2CCC(O)(C(=O)O)CC2)c1Cl [Example 1099, (R)-1-(3-((3′-((4-(((2-carboxy-1-hydroxypropan-2-yl)amino)methyl)-2-chloro-5-((5-cyanopyridin-3-yl)methoxy)phenoxy)methyl)-2-chloro-2′-methyl-[1,1′-biphenyl]-3-yl)oxy)propyl)-4-hydroxypiperidine-4-carboxylic Acid]	0.21 to 10	–
CCOC(=O)C1(O)CCN(CCCOc2cccc(-c3cccc(COc4cc(OCc5cncc(C#N)c5)c(CN5CCCC[C@H]5C(=O)O)cc4Cl)c3C)c2Cl)CC1 [Example 1100, (S)-1-(5-chloro-4-((2′-chloro-3′-(3-(4-(ethoxycarbonyl)-4-hydroxypiperidin-1-yl)propoxy)-2-methyl-[1,1′-biphenyl]-3-yl)methoxy)-2-((5-cyanopyridin-3-yl)methoxy)benzyl)piperidine-2-carboxylic Acid]	0.21 to 10	–
CCOC(=O)C1(CO)CCN(CCCOc2cccc(-c3cccc(COc4cc(OCc5cncc(C#N)c5)c(CN5CCCC[C@H]5C(=O)O)cc4Cl)c3C)c2Cl)C1 (stereo partly drawn) [Example 1101, (2S)-1-(5-chloro-4-((2′-chloro-3′-(3-(3-(ethoxycarbonyl)-3-(hydroxymethyl)pyrrolidin-1-yl)propoxy)-2-methyl-[1,1′-biphenyl]-3-yl)methoxy)-2-((5-cyanopyridin-3-yl)methoxy)benzyl)piperidine-2-carboxylic Acid]	0.21 to 10	–
CCOC(=O)C1(CO)CCN(CCCOc2cccc(-c3cccc(COc4cc(OCc5cncc(C#N)c5)c(CN5CCC(CO)(C(=O)OCC)C5)cc4Cl)c3C)c2Cl)C1 (stereo not shown) [Example 1102, ethyl 1-(3-((2-chloro-3′-((2-chloro-5-((5-cyanopyridin-3-yl)methoxy)-4-((3-(ethoxycarbonyl)-3-(hydroxymethyl)pyrrolidin-1-yl)methyl)phenoxy)methyl)-2′-methyl-[1,1′-biphenyl]-3-yl)oxy)propyl)-3-(hydroxymethyl)pyrrolidine-3-carboxylate]	–	2.8
CCOC(=O)C1(CO)CCN(CCCOc2cccc(-c3cccc(COc4cc(OCc5cncc(C#N)c5)c(CN[C@](C)(CO)C(=O)O)cc4Cl)c3C)c2Cl)C1 (stereo partly drawn) [Example 1103, (2R)-2-((5-chloro-4-((2′-chloro-3′-(3-(3-(ethoxycarbonyl)-3-(hydroxymethyl)pyrrolidin-1-yl)propoxy)-2-methyl-[1,1′-biphenyl]-3-yl)methoxy)-2-((5-cyanopyridin-3-yl)methoxy)benzyl)amino)-3-hydroxy-2-methylpropanoic Acid]	0.21 to 10	–
CCOC(=O)C1(CO)CCN(CCCOc2cccc(-c3cccc(COc4cc(OCc5cncc(C#N)c5)c(CN5CCC(CO)(C(=O)OCC)C5)cc4Cl)c3C)c2Cl)C1 (stereo not shown) [Example 1104, ethyl 1-(3-((2-chloro-3′-((2-chloro-5-((5-cyanopyridin-3-yl)methoxy)-4-((3-(ethoxycarbonyl)-3-(hydroxymethyl)pyrrolidin-1-yl)methyl)phenoxy)methyl)-2′-methyl-[1,1′-biphenyl]-3-yl)oxy)propyl)-3-(hydroxymethyl)pyrrolidine-3-carboxylate]	10 to 100	–
CC(=O)NC1CCN(CCCOc2cccc(-c3cccc(COc4cc(OCc5cncc(C#N)c5)c(CN5CCCC[C@H]5C(=O)O)cc4Cl)c3C)c2C)CC1 [Example 1105, (S)-1-(4-((3′-(3-(4-acetamidopiperidin-1-yl)propoxy)-2,2′-dimethyl-[1,1′-biphenyl]-3-yl)methoxy)-5-chloro-2-((5-cyanopyridin-3-yl)methoxy)benzyl)piperidine-2-carboxylic Acid]	0.21 to 10	–
Cc1c(COc2cc(OCc3cncc(C#N)c3)c(CN3CCCC[C@H]3C(=O)O)cc2Cl)cccc1-c1cccc(OCCCN2CCC(CO)(C(=O)O)C2)c1Cl (stereo partly drawn) [Example 1106, (2S)-1-(4-((3′-(3-(3-carboxy-3-(hydroxymethyl)pyrrolidin-1-yl)propoxy)-2′-chloro-2-methyl-[1,1′-biphenyl]-3-yl)methoxy)-5-chloro-2-((5-cyanopyridin-3-yl)methoxy)benzyl)piperidine-2-carboxylic Acid]	–	1
Cc1c(COc2cc(OCc3cncc(C(N)=O)c3)c(CN3CCCC[C@H]3C(=O)O)cc2Cl)cccc1-c1cccc(OCCCN2CCC(CO)(C(=O)O)C2)c1Cl (stereo partly drawn) [Example 1107, (2S)-1-(2-((5-carbamoylpyridin-3-yl)methoxy)-4-((3′-(3-(3-carboxy-3-(hydroxymethyl)pyrrolidin-1-yl)propoxy)-2′-chloro-2-methyl-[1,1′-biphenyl]-3-yl)methoxy)-5-chlorobenzyl)piperidine-2-carboxylic Acid]	0.21 to 10	–
Cc1c(COc2cc(OCc3cncc(C#N)c3)c(CN[C@](C)(CO)C(=O)O)cc2Cl)cccc1-c1cccc(OCCCN2CCC(CO)(C(=O)O)C2)c1Cl (stereo partly drawn) [Example 1108, 1-(3-((3′-((4-((((R)-2-carboxy-1-hydroxypropan-2-yl)amino)methyl)-2-chloro-5-((5-cyanopyridin-3-yl)methoxy)phenoxy)methyl)-2-chloro-2′-methyl-[1,1′-biphenyl]-3-yl)oxy)propyl)-3-(hydroxymethyl)pyrrolidine-3-carboxylic Acid]	0.21 to 10	–
Cc1c(COc2cc(OCc3cncc(C#N)c3)c(CN3CCCC[C@H]3C(=O)O)cc2Cl)cccc1-c1cccc(OCCCN2CCC(CO)(C(=O)O)CC2)c1C [Example 1110, (S)-1-(4-((3′-(3-(4-carboxy-4-(hydroxymethyl)piperidin-1-yl)propoxy)-2,2′-dimethyl-[1,1′-biphenyl]-3-yl)methoxy)-5-chloro-2-((5-cyanopyridin-3-yl)methoxy)benzyl)piperidine-2-carboxylic Acid]	10 to 100	–
Cc1c(COc2cc(OCc3cncc(C(N)=O)c3)c(CN3CCCC[C@H]3C(=O)O)cc2Cl)cccc1-c1cccc(OCCCN2CCC(CO)(C(=O)O)CC2)c1C [Example 1111, (S)-1-(2-((5-carbamoylpyridin-3-yl)methoxy)-4-((3′-(3-(4-carboxy-4-(hydroxymethyl)piperidin-1-yl)propoxy)-2,2′-dimethyl-[1,1′-biphenyl]-3-yl)methoxy)-5-chlorobenzyl)piperidine-2-carboxylic Acid]	0.21 to 10	–
Cc1c(COc2cc(OCc3cncc(C#N)c3)c(CN[C@](C)(CO)C(=O)O)cc2Cl)cccc1-c1cccc(OCCCN2CCC(CO)(C(=O)O)CC2)c1C [Example 1112, (R)-1-(3-((3′-((4-(((2-carboxy-1-hydroxypropan-2-yl)amino)methyl)-2-chloro-5-((5-cyanopyridin-3-yl)methoxy)phenoxy)methyl)-2,2′-dimethyl-[1,1′-biphenyl]-3-yl)oxy)propyl)-4-(hydroxymethyl)piperidine-4-carboxylic Acid]	0.21 to 10	–
Cc1c(COc2cc(OCc3cncc(C(N)=O)c3)c(CN[C@](C)(CO)C(=O)O)cc2Cl)cccc1-c1cccc(OCCCN2CCC(CO)(C(=O)O)CC2)c1C [Example 1113, (R)-1-(3-((3′-((5-((5-carbamoylpyridin-3-yl)methoxy)-4-(((2-carboxy-1-hydroxypropan-2-yl)amino)methyl)-2-chlorophenoxy)methyl)-2,2′-dimethyl-[1,1′-biphenyl]-3-yl)oxy)propyl)-4-(hydroxymethyl)piperidine-4-carboxylic Acid]	0.21 to 10	–
Cc1c(COc2cc(OCc3cncc(C(N)=O)c3)c(CN3CCCC[C@H]3C(=O)O)cc2Cl)cccc1-c1cccc(OCCCN2CCC(CO)(C(=O)O)CC2)c1Cl [Example 1114, (S)-1-(2-((5-carbamoylpyridin-3-yl)methoxy)-4-((3′-(3-(4-carboxy-4-(hydroxymethyl)piperidin-1-yl)propoxy)-2′-chloro-2-methyl-[1,1′-biphenyl]-3-yl)methoxy)-5-chlorobenzyl)piperidine-2-carboxylic Acid]	0.21 to 10	–
Cc1c(COc2cc(OCc3cncc(C#N)c3)c(CN[C@](C)(CO)C(=O)O)cc2Cl)cccc1-c1cccc(OCCCN2CCC(CO)(C(=O)O)CC2)c1Cl [Example 1115, (R)-1-(3-((3′-((4-(((2-carboxy-1-hydroxypropan-2-yl)amino)methyl)-2-chloro-5-((5-cyanopyridin-3-yl)methoxy)phenoxy)methyl)-2-chloro-2′-methyl-[1,1′-biphenyl]-3-yl)oxy)propyl)-4-(hydroxymethyl)piperidine-4-carboxylic Acid]	0.21 to 10	–
Cc1c(COc2cc(OCc3cncc(C(N)=O)c3)c(CN[C@](C)(CO)C(=O)O)cc2Cl)cccc1-c1cccc(OCCCN2CCC(CO)(C(=O)O)CC2)c1Cl [Example 1116, (R)-1-(3-((3′-((5-((5-carbamoylpyridin-3-yl)methoxy)-4-(((2-carboxy-1-hydroxypropan-2-yl)amino)methyl)-2-chlorophenoxy)methyl)-2-chloro-2′-methyl-[1,1′-biphenyl]-3-yl)oxy)propyl)-4-(hydroxymethyl)piperidine-4-carboxylic Acid]	0.21 to 10	–
CCOC(=O)C1(CO)CCN(CCCOc2cccc(-c3cccc(COc4cc(OCc5cncc(C#N)c5)c(CNC(C)(CO)CO)cc4Cl)c3C)c2Cl)C1 (stereo not shown) [Example 1117, ethyl 1-(3-((2-chloro-3′-((2-chloro-5-((5-cyanopyridin-3-yl)methoxy)-4-(((1,3-dihydroxy-2-methylpropan-2-yl)amino)methyl)phenoxy)methyl)-2′-methyl-[1,1′-biphenyl]-3-yl)oxy)propyl)-3-(hydroxymethyl)pyrrolidine-3-carboxylate]	0.21 to 10	–
Cc1c(COc2cc(OCc3cncc(C#N)c3)c(CNC(C)(CO)CO)cc2Cl)cccc1-c1cccc(OCCCN2CCC(CO)(C(=O)O)C2)c1Cl (stereo not shown) [Example 1118, 1-(3-((2-chloro-3′-((2-chloro-5-((5-cyanopyridin-3-yl)methoxy)-4-(((1,3-dihydroxy-2-methylpropan-2-yl)amino)methyl)phenoxy)methyl)-2′-methyl-[1,1′-biphenyl]-3-yl)oxy)propyl)-3-(hydroxymethyl)pyrrolidine-3-carboxylic Acid]	10 to 100	–
